Test results published in article PMC12193058, “Discovery of Small Molecules Targeting Norovirus 3CL Protease by Multi-Stage Virtual Screening” (International Journal of Molecular Sciences, 2025).

What was measured:
[1] = system: Murine norovirus (MNV, strain MNV-1.CW1); assay: Antiviral assay: MNV-infected RAW264.7 cells, protection from CPE (MTS); assay type: cell-based
Description: (§1) Murine norovirus (MNV, strain MNV-1. CW1) was propagated as previously described. HG23 cells and RAW 264.7 cells were maintained as described earlier. The cells were incubated at 37 °C in a humidified atmosphere of 5% CO2. To obtain virus stock, once full CPE was observed, the cells underwent two freeze–thaw cycles and the virus was harvested from the supernatants after centrifugation (10 min, 1000× g) and stored at […]. The viral titer was determined by endpoint titration.
(§2) The experiment was performed as previously described. In short, RAW264.7 cells (1 × 10^4 cells/well) were infected with MNV.CW1 in the presence of a dilution series of compounds. Antiviral activity and cytotoxicity were determined using a colorimetric assay using 3-(4,5-dimethylthiazol-2-yl)-5-(3-carboxymethoxyphenyl)-2-(4 sulfophenyl)-2H-tetrazolium (MTS). The 50% effective concentration (EC50) was defined as the compound concentration that protected 50% of the cells from CPE. The cell viability % was calculated as (ODtreated/ODCC) × […] and the 50% cytotoxic concentration (CC50) was defined as the compound concentration that reduces the number of viable cells by 50%. HuNoVGI.1replicon: The experiment was performed as described earlier with minor modifications. In short, HG23 cells (7.5 × 10^2 cells/well) were seeded into the wells of a 96-well plate without G418 (Geneticin Selective Antibiotic). After 24 h of incubation, the tested compounds were added. The cells were incubated for another 72 h; then they were collected for RNA load quantification using RT-qPCR [34]. The EC50 values were defined as the compound concentration that led to a 50% reduction in the relative HuNoV GI.1 replicon RNA levels.

[2] = Cytotoxicity assay (MTS) in non-infected cells; assay type: cell-based; conditions: mouse, RAW264.7 cells (non-infected); cytotoxic concentration to induce 50% death of non-infected cells; mean of two to three independent experiments
Description: as §1, §2

SMILES | EC50 [1] | CC50 [2]
CC1=NN=C(O)C1CC(=O)N/N=C/c1cccc(Br)c1 (stereo not shown) [YY-0182] | > 50 µM | > 50 µM
COc1cc(C(CC(=O)NCC(=O)NCc2ccco2)c2oc(C)cc(=O)c2O)ccc1O (stereo not shown) [YY-0420] | > 50 µM | > 50 µM
Cc1[nH][nH]c(=O)c1CC(=O)N1C[C@@H](c2ccccc2)O[C@@H](C(C)C)C1 [YY-0587] | > 50 µM | > 50 µM
CCC(SC1=Nc2ccccc2C2=NC(=O)C(CCC(=O)NCc3ccc(F)cc3)N12)C(=O)Nc1cccc(OC)c1 (stereo not shown) [YY-0734] | > 50 µM | > 50 µM
Cc1cc(N)n(CC(=O)N(Cc2cccnc2)Cc2ccc3c(c2)OCO3)n1 [YY-0744] | > 50 µM | > 50 µM
Cc1nc2ccc(NC(=O)N3CCNC(=O)C3CCO)cc2nc1C (stereo not shown) [YY-0809] | > 50 µM | > 50 µM
COc1cncc(C(NC(=O)c2cc(=O)[nH]c3ccccc23)[C@H]2C[C@H](O)C2)c1 (stereo partly shown) [YY-3656] | > 50 µM | > 50 µM
O=C(NC1CCCc2ccccc21)[C@H](Cc1ccccc1)NC(=O)N1CC(O)=Nc2ccccc21 (stereo partly shown) [YY-3724] | > 50 µM | > 50 µM
CC(C)C1C(O)=Nc2ccccc2N1C(=O)N[C@@H](Cc1ccccc1)C(=O)N[C@@H](CCC(N)=O)C(=O)O (stereo partly shown) [YY-4047] | > 50 µM | > 50 µM
CNC(=O)c1ccc(C)c(NC(=O)NCCN2CCNC2=O)c1 [YY-4095] | > 50 µM | > 50 µM
COc1ccc(CCNC(=O)[C@H](Cc2ccccc2)NC(=O)N2CC(O)=Nc3ccccc32)cc1 [YY-4204] | > 50 µM | > 50 µM
COc1ccc(C(CC(=O)N2CCc3c([nH]c4ccccc34)C2)c2oc(C)cc(=O)c2O)cc1O (stereo not shown) [YY-4958] | > 50 µM | > 50 µM
CCCCNC(=O)[C@H](Cc1ccccc1)NC(=O)N1CC(O)=Nc2ccccc21 [YY-6127] | > 50 µM | > 50 µM
COc1ccc(CCN(C(=O)Cc2nnc(O)c3ccccc23)[C@@H](C)C(N)=O)cc1 [YY-8610] | > 50 µM | > 50 µM
O=C(ON1C(=O)CCC1=O)[C@H](Cc1ccccc1)NC(=O)N1CC(O)=Nc2ccccc21 [YY-9242] | > 50 µM | > 50 µM
O=C(NCc1cccc(Cl)c1)[C@H](Cc1ccccc1)NC(=O)N1CC(O)=Nc2ccccc21 [YY-9773] | > 50 µM | > 50 µM
COc1cc(NC(=O)[C@H](Cc2ccccc2)NC(=O)N2CC(O)=Nc3ccccc32)cc(OC)c1 [YY-9837] | > 50 µM | 45 µM
